From patent US10174307B2, “Performance enhancing genetic variants of E. coli” (priority 2014, dated 2019)
Converted amounts (≈) assume the structure as drawn.

Tested on: E. coli
Experiment: Erythromycin MIC quoted in legend of growth assay with and without erythromycin
Assay type: cell-based
Details: Escherichia coli
Procedure: E. coli MG1655 was used as wild-type. The ALE selected rpoBE564V and rpoBE672K knock in strains were previously constructed by allelic replacement^7. To generate additional variants of […] and 672 positions, MAGE was performed on the wild-type strain by first transformation of recombineering plasmid pKD46^46, then inactivation of mutS with two nonsense mutations at residues 189 and 191 using an oligo (mutS_MUT). […] To perform each cycle of MAGE, the 1-Red system was induced with 0.5%-arabinose 45 minutes prior to generation of electrocompetent cells and oligo. Batch cultures were done in flask with M9 minimal media and 4 g/L of glucose at 37° C. or LB rich media. Glucose limited chemostats were carried out in a Bioflo 110 fermentor (New Brunswick Scientific, NJ). Glucose supplemented M9 was added to the reactor at 0.31 and 0.44 h^−1 dilution rates controlled by a peristaltic pump. Steady state was achieved after 3-5 residence times and was verified by biomass measurements. Phenotypic tests were performed by inoculation of media with an overnight pre-culture of glucose M9 media for all cases. Erythromycin was added to the media to the indicated concentration. The pH of M9 was adjusted to the indicated value with 6M HCl. Different substrates and mixtures were added to M9 to test growth in the indicated conditions. […]

CC[C@H]1OC(=O)[C@H](C)[C@@H](O[C@H]2C[C@@](C)(OC)[C@@H](O)[C@H](C)O2)[C@H](C)[C@@H](O[C@@H]2O[C@H](C)C[C@H](N(C)C)[C@H]2O)[C@](C)(O)C[C@@H](C)C(=O)[C@H](C)[C@@H](O)[C@]1(C)O [erythromycin]
MIC: 512 to 1020 µg/mL (≈ 698 to 1400 µM)
